From patent US20110034507A1, “FARNESOID X RECEPTOR AGONISTS” (SMITHKLINE BEECHAM CORPORATION, priority 2007, published 2011)
“Also recorded” adds a separate entry of the source. Values belong to the molecule of their own block, whether it stands above or below them.

How the values were obtained:
[1] = tested on: bile duct-ligated mouse; conditions: cited from earlier work
[2] = tested on: db/db mice; conditions: cited from earlier work
[3] = tested on: C57BL mice on high-fat diet; conditions: cited from earlier work
[4] = tested on: ob/ob mice; conditions: 30 mg/kg intraperitoneally, male ob/ob mice; cited from earlier work
[5] = tested on: mice on a lithogenic diet; conditions: cited from earlier work
[6] = target: T1, Human FXRα Ligand Binding Domain (Homo sapiens, UniProt Q96RI1); assay: FXR Cofactor Binding Assay (ligand mediated SRC-1 cofactor peptide interaction, time resolved fluorescence); type: biochemical; conditions: FXRα LBD / SRC-1 (LCD2, 676-700) peptide, TRF; read-out: Activity (pEC50) (converted)
T1 construct: polyhistidine (pRSET-A vector leader) (N); made in house; host or cells: E. coli BL21 (DE3), pRSET-A vector
T1 sequence (Q96RI1 237-472 isoform Q96RI1-2): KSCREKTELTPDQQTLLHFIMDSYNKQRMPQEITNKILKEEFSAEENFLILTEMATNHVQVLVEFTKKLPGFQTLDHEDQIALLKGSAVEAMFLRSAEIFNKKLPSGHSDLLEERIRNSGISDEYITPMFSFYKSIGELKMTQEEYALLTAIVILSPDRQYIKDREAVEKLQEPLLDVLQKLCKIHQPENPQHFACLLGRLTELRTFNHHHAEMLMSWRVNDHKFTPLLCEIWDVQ
Text: Determination of a ligand mediated cofactor peptide interaction to quantify ligand binding to the nuclear receptor Farnesoid X Receptor (FXR). The method measures the ability of putative ligands to modulate the interaction between the purified bacterial expressed FXRα ligand binding domain (LBD) and a synthetic biotinylated peptide based on residues 676-700 of steroid receptor coactivator-1 (SRC-1) (LXXLL-containing domain-2 where L is the amino acid leucine and X indicates any other amino acid (LCD2), 676-700). The sequence of the SRC-1 peptide used is as published in Iannone, M. A., et al., 2001 Cytometry 44:326-337 where the N-terminus was biotinylated (B) and the C-terminus was amidated. Detection of the associated complex was measured by time resolved fluorescence (TRF). The purified LBD of FXR was labeled with biotin, then mixed with stoichiometric amounts of allophycocyanin (APC) labeled streptavidin (Molecular Probes). The biotinylated peptide was then mixed with a ½ stoichiometric amount of europium labeled streptavidin (Wallac Inc). Each was then blocked with a 5 fold excess of biotin and allowed to equilibrate for 15 min. Equimolar amounts of receptor and peptide were mixed together and were allowed to equilibrate for at least 30 min prior to the addition to either a variable or constant concentrations of the sample for which the affinity is to be determined. After equilibration, the time-resolved fluorescent signal was quantitated using a fluorescent plate reader. The affinity of the test compound was estimated from a plot of fluorescence versus concentration of test compound added.
Ligands that promote the complex formation induce a concentration-dependent increase in time-resolved fluorescent signal.
Human FXRα Ligand Binding Domain (FXRα LBD) was expressed in E. coli strain BL21 (DE3) as an amino-terminal polyhistidine tagged fusion protein. Expression was under the control of an isopropyl-β-D-thiogalactopyranoside (IPTG) inducible T7 promoter. DNA encoding this recombinant protein is subcloned into the pRSET-A expression vector (Invitrogen). The coding sequence of Human FXRα LBD was derived from Genbank accession number U 68233 (amino acids 237 to 472).
Ten-liter fermentation batches were grown in Rich PO4 media with 0.1 mg/mL Ampicillin at 25° C. for 12 hours, cooled to 9° C. and held at that temperature for 36 hours to a density of OD600=14. At this cell density, 0.25 mM IPTG is added and induction proceeded for 24 hours at 9° C., to a final OD600=16. Cells are harvested by centrifugation (20 minutes, 3500×gravity, 4° C.), and concentrated cell slurries were stored in phosphate buffered saline (PBS) at […].
Routinely, 30-40 g cell paste (equivalent to 2-3 liters of the fermentation batch) was resuspended in 200-250 mL Tris buffered saline (TBS), pH 7.2 (25 mM Tris-hydroxymethylamino methane (Tris), 150 mM sodium chloride). Cells were lysed by passing 3 times through a French Press and cell debris was removed by centrifugation (30 minutes, 20,000×gravity, 4° C.). The cleared supernatant was filtered through course pre-filters, and TBS, pH 7.2, 500 mM imidazole was added to obtain a final imidazole concentration of 50 mM. This lysate was loaded onto a column (6×8 cm) packed with Sepharose [Ni^++ charged] Chelation resin (Pharmacia) and pre-equilibrated with TBS pH 7.2/50 mM imidazole. After washing to baseline absorbance with equilibration buffer, the column was washed with one column volume of TBS pH 7.2 containing 90 mM imidazole. FXRα LBD was eluted directly with 365 mM imidazole. Column fractions were pooled and dialyzed against TBS, pH 7.2, containing 0.5 mM EDTA and 5 mM DTT. The dialyzed protein sample was concentrated using Centri-prep 10 K (Amicon) and subjected to size exclusion, using a column (3×90 cm) packed with Sepharose S-75 resin (Pharmacia) pre-equilibrated with TBS, pH 7.2, containing 0.5 mM ethylene diamine tetraacetic acid (EDTA) and 5 mM dithiothreitol (DTT).

[7] = GW4064 100 mg/kg twice a day orally

Compound: CC(C)c1onc(-c2c(Cl)cccc2Cl)c1COc1ccc(/C=C/c2cccc(C(=O)O)c2)c(Cl)c1 [GW4064]
- effect on translocation of bacteria in FXR null mice ([1]; FXR null mice): lost
- bacterial overgrowth ([1]; bile duct-ligated mouse): decreased
- mucosal barrier ([1]; bile duct-ligated mouse): improved
- translocation of bacteria to mesenteric lymph nodes ([1]; bile duct-ligated mouse): decreased
- glycogen storage in the liver ([2]; db/db mice): enhanced
- insulin signalling in the liver ([2]; db/db mice): enhanced
- hyperglycemia ([2]; diabetic db/db mice): significantly improved
- hyperlipidemia ([2]; diabetic db/db mice): significantly improved
- NEFA ([2]; oral 30 mg/kg, bid, db/db mice): decreased
- blood glucose ([2]; oral 30 mg/kg, bid, db/db mice): decreased
- serum hydroxybutyrate ([2]; oral 30 mg/kg, bid, db/db mice): decreased
- total cholesterol ([2]; oral 30 mg/kg, bid, db/db mice): decreased
- triglyceride ([2]; oral 30 mg/kg, bid, db/db mice): decreased
- body weight (high-fat diet induced body weight gain) ([3]; GW4064 100 mg/kg twice a day orally, 100 mg/kg): decreased; also recorded: reduced
- glucose tolerance ([3]; GW4064 100 mg/kg twice a day orally, GTT, 100 mg/kg): corrected glucose intolerance; also recorded: appeared to improve
- liver triglyceride content [3, 7]: reduced
- serum glucose [3, 7]: decreased
- serum insulin [3, 7]: decreased
- serum triglyceride [3, 7]: decreased
- body fat mass [3]: decreased
- total cholesterol [3]: decreased
- body weight [4]: did not alter
- fasting blood glucose [4]: no effect
- food intake [4]: did not alter
- glucose tolerance [4]: improved
- insulin concentration [4]: decreased
- insulin sensitivity [4]: enhanced
- effect on cholesterol crystal formation in FXR null mice ([5]; FXR null mice): lost
- formation of cholesterol crystals in the bile ([5]; mice on a lithogenic diet): prevented

- EC50 [6]: 0.102 to 1 µM
Compound: CC(C)c1onc(-c2c(Cl)cccc2Cl)c1COc1ccc2nc(-c3cccc(C(=O)O)c3)sc2c1 [Example 11, 3-[6-({[3-(2,6-Dichlorophenyl)-5-(1-methylethyl)-4-isoxazolyl]methyl}oxy)-1,3-benzothiazol-2-yl]benzoic acid]

- EC50 [6]: 0.102 to 1 µM
Compound: CC(C)c1onc(-c2c(Cl)cccc2Cl)c1COc1ccc2cc(-c3ccc(NS(=O)(=O)C(F)(F)F)cc3)ccc2c1 [Example 32, N-{4-[6-({[3-(2,6-dichlorophenyl)-5-(1-methylethyl)-4-isoxazolyl]methyl}oxy)-2-naphthalenyl]phenyl}-1,1,1-trifluoromethanesulfonamide]

- EC50 [6]: < 0.1 µM
Compound: CC(C)c1onc(-c2c(Cl)cccc2Cl)c1COc1ccc2sc(-c3cccc(C(=O)O)c3)cc2c1 [Example 54, 3-[5-({[3-(2,6-Dichlorophenyl)-5-(1-methylethyl)-4-isoxazolyl]methyl}oxy)-1-benzothien-2-yl]benzoic acid]

- EC50 [6]: < 0.1 µM
Compound: CC(C)c1onc(-c2c(Cl)cccc2Cl)c1COc1ccc2c(ccn2Cc2ccc(-c3nnn[nH]3)cc2)c1 [Example 46, 5-({[3-(2,6-Dichlorophenyl)-5-(1-methylethyl)-4-isoxazolyl]methyl}oxy)-1-{[4-(1H-tetrazol-5-yl)phenyl]methyl}-1H-indole]

- EC50 [6]: 1.02 to 10 µM
Compound: CC(C)c1onc(-c2c(Cl)cccc2Cl)c1COc1ccc2c(c1)CC(=O)N(c1cccc(C(=O)O)c1)C2 [Example 45, 3-[6-({[3-(2,6-Dichlorophenyl)-5-(1-methylethyl)-4-isoxazolyl]methyl}oxy)-3-oxo-3,4-dihydro-2(1H)-isoquinolinyl]benzoic acid]

- EC50 [6]: 0.102 to 1 µM
Compound: CC(C)c1onc(-c2c(Cl)cccc2Cl)c1COc1ccc2c(ccn2Cc2ccc(C(=O)O)cc2)c1 [Example 13, 4-{[5-({[3-(2,6-Dichlorophenyl)-5-(1-methylethyl)-4-isoxazolyl]methyl}oxy)-1H-indol-1-yl]methyl}benzoic acid]

- EC50 [6]: 0.102 to 1 µM
Compound: CC(C)c1onc(-c2c(Cl)cccc2Cl)c1COc1ccc2cc(-c3cccc(NS(=O)(=O)C(F)(F)F)c3)ccc2c1 [Example 28, N-{3-[6-({[3-(2,6-dichlorophenyl)-5-(1-methylethyl)-4-isoxazolyl]methyl}oxy)-2-naphthalenyl]phenyl}-1,1,1-trifluoromethanesulfonamide]

- EC50 [6]: 1.02 to 10 µM
Compound: CC(C)c1onc(-c2c(Cl)cccc2Cl)c1COc1ccc2c(c1)ncn2Cc1cccc(C(=O)O)c1 [Example 42, 3-{[5-({[3-(2,6-Dichlorophenyl)-5-(1-methylethyl)-4-isoxazolyl]methyl}oxy)-1H-benzimidazol-1-yl]methyl}benzoic acid]

- EC50 [6]: 0.102 to 1 µM
Compound: CC(C)c1onc(-c2c(Cl)cccc2Cl)c1COc1ccc2cc(-c3cc(C(=O)O)ccn3)ccc2c1 [Example 21, 2-[6-({[3-(2,6-Dichlorophenyl)-5-(1-methylethyl)-4-isoxazolyl]methyl}oxy)-2-naphthalenyl]-4-pyridinecarboxylic acid]

- EC50 [6]: 1.02 to 10 µM
Compound: CC(C)c1onc(COc2c(F)cc(F)cc2F)c1COc1ccc2c(ccn2Cc2cccc(C(=O)O)c2)c1 [Example 2, 3-[(5-{[(5-(1-methylethyl)-3-{[(2,4,6-trifluorophenyl)oxy]methyl}-4-isoxazolyl)methyl]oxy}-1H-indol-1-yl)methyl]benzoic acid]

- EC50 [6]: 0.102 to 1 µM
Compound: CC(C)c1onc(-c2c(Cl)cccc2Cl)c1COc1ccc2cc(-c3ccc(C(=O)O)nc3)ccc2c1 [Example 19, 5-[6-({[3-(2,6-Dichlorophenyl)-5-(1-methylethyl)-4-isoxazolyl]methyl}oxy)-2-naphthalenyl]-2-pyridinecarboxylic acid]

- EC50 [6]: 0.102 to 1 µM
Compound: CC(C)c1onc(-c2c(Cl)cccc2Cl)c1COc1ccc2c(Cc3cccc(C(=O)O)c3)c[nH]c2c1 [Example 52, 3-{[6-({[3-(2,6-Dichlorophenyl)-5-(1-methylethyl)-4-isoxazolyl]methyl}oxy)-1H-indol-3-yl]methyl}benzoic acid]

- EC50 [6]: 0.102 to 1 µM
Compound: CC(C)c1onc(COc2c(Cl)cc(F)cc2Cl)c1COc1ccc2c(ccn2Cc2cccc(C(=O)O)c2)c1 [Example 14, 3-{[5-({[3-{[(2,6-Dichloro-4-fluorophenyl)oxy]methyl}-5-(1-methylethyl)-4-isoxazolyl]methyl}oxy)-1H-indol-1-yl]methyl}benzoic acid]

- EC50 [6]: 1.02 to 10 µM
Compound: CC(C)c1onc(CSc2nccs2)c1COc1ccc2c(ccn2Cc2cccc(C(=O)O)c2)c1 [Example 6, 3-({5-[({5-(1-methylethyl)-3-[(1,3-thiazol-2-ylthio)methyl]-4-isoxazolyl}methyl)oxy]-1H-indol-1-yl}methyl)benzoic acid]

- EC50 [6]: 0.102 to 1 µM
Compound: CC(C)c1onc(-c2c(Cl)cccc2Cl)c1COc1ccc2c(ccn2C(=O)N2CC[C@H](C(=O)O)C2)c1 [Example 55, (3S)-1-{[5-({[3-(2,6-Dichlorophenyl)-5-(1-methylethyl)-4-isoxazolyl]methyl}oxy)-1H-indol-1-yl]carbonyl}-3-pyrrolidinecarboxylic acid]
